# Reference: patent US8932594B2, “Adjuvants and methods of use” (The Scripps Research Institute, priority 2006, dated 2015)
# What was measured:
# CD1d = target: T1, CD1d (Mus musculus, UniProt P11609); experiment: Loading of CD1d molecules, native isoelectric focusing (IEF) gel assay; assay type: binding; settings: 2 μM CD1d, 20 μM lipid, 1 hour at 37° C., no saposin B
# T1 sequence (P11609 19-297 limits assumed): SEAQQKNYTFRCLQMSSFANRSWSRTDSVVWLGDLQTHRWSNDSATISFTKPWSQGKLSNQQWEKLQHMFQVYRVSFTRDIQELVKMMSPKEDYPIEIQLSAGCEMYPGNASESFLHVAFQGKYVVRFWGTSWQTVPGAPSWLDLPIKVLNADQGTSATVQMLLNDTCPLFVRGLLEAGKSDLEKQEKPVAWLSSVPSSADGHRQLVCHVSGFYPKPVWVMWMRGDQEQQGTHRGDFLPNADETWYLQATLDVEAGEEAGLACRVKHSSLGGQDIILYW
# T1 sequence (P01887 21-119 partner): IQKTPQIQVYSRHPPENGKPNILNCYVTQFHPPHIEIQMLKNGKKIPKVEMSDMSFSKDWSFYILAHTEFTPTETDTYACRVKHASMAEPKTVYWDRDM
# Experimental: Whether PBS-31 and PBS-32 could be efficiently loaded onto CD1d molecules was tested using a native isoelectric focusing (IEF) gel assay in the presence and absence of saposin B. For comparison, PBS-41 and PBS-46 (sulfo-β-galactosylceramides), PBS-36 and PBS-58 (sulfo-α-glucosylceramides) and PBS-35 and PBS-40 (β-glucosylceramides) were also evaluated in this assay.
# Each 5 μl reaction contained 2 μM CD1d, 20 μM lipid and 10 μM saposin B. Reactions were incubated for 1 hour at 37° C. prior to gel loading.
# Loaded species are indicated by a star in FIG. 3. The lanes of FIG. 3 were loaded as follows: 1, no lipid; 2, αGalCer; 3, PBS-31; 4, PBS-32; 5, no lipid; 6, iGB3; 7, PBS-40; 8, PBS-41; 9, PBS-35; 10, PBS-46; 11, PBS-58; 12, PBS-25 (positive control).
# NKT cells = experiment: Cytokine production by stimulated NKT cells (splenocytes), ELISA; assay type: cell-based; settings: 24 hours incubation with splenocytes
# Experimental: NKT cells were stimulated with PBS-32 or control compounds presented by plate-bound CD1d, splenocytes or purified mature DCs. Production of IFN-γ, IL-4, IL-10 and GM-CSF was measured by ELISA. […] The control lipids (glucosyl and galactosyl) were negative in the same assays. Cytokine induction was CD1d-dependent because induction was blocked by anti-CD1d antibodies and no cytokine induction was observed when DCs from CD1d^−/− mice were used (data not shown).
# [1] = system: CD1d-restricted Vα14 NKT hybridoma cell, DN32.D3; experiment: Stimulation of NKT hybridoma DN32.D3 by lipid-pulsed APCs, IL-2 release; assay type: cell-based, mice; settings: for presentation by DCs isolated from CD1-TD mice: DCs with disrupted cytoplasmic tail of CD1d, data not shown; for presentation by splenocytes to DN32.D3 (IL-2 release): irradiated splenocytes, 24 hours
# Experimental: Compounds PBS-31, PBS-32, and control lipids were evaluated for their ability to stimulate a canonical CD1d-restricted Vα14 NKT hybridoma cell, DN32.D3 in an assay described by Lantz, et al., J. Exp. Med. 180: 1097-1106 (1994). Irradiated splenocytes were pulsed with decreasing concentrations of the lipids and control compounds, and incubated with DN32.D3 cells for 24 hours. Supernatants were harvested and IL-2 release was measured using a [^3H]-thymidine incorporation assay with an IL-2 dependent cell line as described by Cantu, et al., J. Immunol. 170:4673-4682 (2003).
# Similar results were obtained when mature DCs were used as the APCs (data not shown). […] Therefore, presentation of PBS-31 and PBS-32 and concomitant stimulation of NKT cells is dependent on lysosomal targeting of CD1d.
# human NKT cell line = experiment: Activation of human NKT cell line, IL-4 and IFN-γ ELISA; assay type: cell-based; settings: 24 hours incubation with PBLs or matured DCs
# Experimental: The agonistic activity of PBS-31 and PBS-32 was examined for human NKT cells. A human NKT cell line was stimulated with irradiated peripheral blood lymphocytes (PBLs) or in vitro matured DCs in the presence of PBS-31, PBS-32 and control lipid, iGB3. (Mattner et al., Nature 434: 525-529 (2005) incorporated herein by reference in its entirety.) After 24 hours incubation, supernatants were harvested and assayed for the presence of IL-4 and IFN-γ by ELISA.
# splenic DCs = experiment: Induction of DC maturation in vivo, FACS of splenic cells; parameters: species or system mice; settings: for DC phenotype (CD40, CD80, CD86, MHC class II expression): CD11c+/CD8+ and CD11c+/CD8− cells
# Experimental: Mice were injected with α-GalCer, PBS-31 and PBS-32 and DC differentiation was examined in splenic DCs by analyzing cell surface marker expression.
# Three mice in each group were injected intravenously with 1 μg lipid or vehicle alone. At 24 hours post-injection, CD1d expression was examined on splenic B cells (B220+), macrophages (CD11b+) and DCs (CD11c+) by FACS analysis using a FACScalibur machine and FlowJo analysis software.
# The maturation of DCs was analyzed by measuring expression of CD40, CD80, CD86, and MHC class II on CD11c^+/CD8^+ and CD11c^+/CD8^− cells (FIG. 8). […] PBS-32 and αGalCer reached maximal induction between 0.1 and 1 μg (data not shown).
# Induction of DC maturation was unaffected in MyD88^−/− and MyD88^−/−TRIF^−/− knock out animals in which the Toll-like receptor pathway is partially, or totally impaired, respectively (data not shown). The CD1d-dependence was confirmed by injecting CD1d^−/− mice with the lipids.
# DN32.D3 cells = experiment: DC-free assay: plate-coated murine CD1d, DN32.D3 cells, IL-2 production; assay type: cell-based; settings: for requirement of processing by DCs for stimulation of NKT cells: plate-coated murine CD1d, with saposin B, 24 hours, data not shown
# Experimental: To determine whether presentation of PBS-31 and PBS-32 to NKT cells was dependent on processing by DCs, a DC-free assay was used in which murine CD1d was coated on 96 well plates. PBS-31, PBS-32 and control compounds were added at various concentrations in the presence and absence of saposin B. DN32.D3 cells were added and supernatants were harvested after 24 hours and production of IL-2 was measured.
# [2] = system: lymphocytic choriomeningitis virus (LCMV); assay type: in vivo, C57BI/6 mice; settings: 1 μg intravenous before 10^6 PFU LCMVArm, day 8 post-infection, intracellular IFN-γ
# C57BI/6 mice = experiment: Serum cytokines after intravenous injection, ELISA; assay type: in vivo; settings: 1 μg intravenous
# Experimental: In vivo, following intravenous injection of 1 μg of positive control compound, αGalCer, or PBS-32, IFN-γ production in the serum of C57BI/6 mice was measured by ELISA and was very similar for both compounds (2500 pg/ml and 1500 pg/ml at 24 hours, respectively). IL-4 was undetectable following PBS-32 injection. […] At eight hours post-injection, PBS-32 induced 600 pg/ml IFN-γ.
# [3] = system: murine Vα14 NKT cell line; experiment: Lipid-loaded CD1d tetramer staining of NKT cell line, FACS; assay type: binding; settings: lipid-loaded CD1d tetramers; data not shown
# Experimental: PBS-32-loaded CD1d tetramers, as well as control αGalCer tetramers, were prepared as described in Benlagha et al., J. Exp. Med. 191: 1895-1903 (2000) incorporated herein by reference in its entirety. The resulting tetramers were used to stain a murine Vα14 NKT cell line. After washing, the cells were analyzed on a FACSCalibur (BD Biosciences) using FlowJo software.
# [4] = system: ovalbumin-specific CD8+ T cell and IgG responses; experiment: Adjuvant capability with ovalbumin antigen; assay type: in vivo, mice; settings: for H-2Kb/ova257-264 tetramer positive cells in the CD8+ T cell pool: ovalbumin plus 1 μg lipid intravenous, peripheral blood, day 7 post-injection; for IgG anti-ovalbumin response: ovalbumin plus lipid, ELISA, compared to control group
# Experimental: The potential adjuvanticity of PBS-31 and PBS-32 combined with a nominal protein antigen, ovalbumin, was conducted following a protocol similar to that of Fujii et al., J. Exp. Med. 198: 267-279 (2003) and Hermans et al., J. Immunol. 171: 5140-5147 (2003), which are incorporated herein by reference in their entireties. Ovalbumin was injected intravenously either alone or in combination with 1 μg of PBS-31, PBS-32 or PBS-57. […] In the absence of working tetramers to follow MHC class II responses, only CD8+ responses and B cell responses were evaluated.
# CD8+ T cell responses were evaluated by enumerating the H-2K^b/ova257-264 tetramer positive cells in peripheral blood at 7 days post-injection and are expressed as the percentage H-2K^b/ova257-264 positive cells in the CD8+ T cell pool. At day 7 post-injection, antigen-specific H-2K^b/ova257-264 tetramer positive cells were increased to about 3% in the PBS-32 injected group whereas they expanded to almost 6% in the PBS-57 treated group (FIG. 9A). […] These strong IgG responses may indirectly reflect a significant boost of the ovalbumin-specific CD4+T helper compartment as well.
# When CD1d^−/− mice were injected following the same protocol, no increase in either anti-ovalbumin IgG or in the anti-ovalbumin CD8+ T cells were noted (data not shown).
# Vα14/2Cβ TCR = settings: previously reported, Cantu et al. 2003; read-out: affinity of the TCR for CD1d-lipid complex; cited from earlier work
compound,measurement,setting,value
CCCCCCCCCCCCCC[C@@H](O)[C@@H](O)[C@H](CO[C@H]1O[C@H](CO)[C@H](O)[C@H](O)[C@H]1O)NC(=O)CCCCCCC [PBS-25],loading of CD1d in the absence of saposin B,CD1d,marginally loaded in the absence of saposin B
CCCCCCCCCCCCCCCCCCCCCCCCCC(=O)NC(COC1OC(CO)C(O)C(OS(=O)(=O)O)C1O)C(O)C(O)CCCCCCCCCCCCCC (centres unmarked) [PBS-31],GM-CSF secretion,NKT cells,induced only GM-CSF
same,IFN-γ secretion,NKT cells,induced only GM-CSF
same,IL-4 secretion,NKT cells,induced only GM-CSF
same,IL-10 secretion,NKT cells,induced only GM-CSF
same,presentation by DCs isolated from CD1-TD mice,[1],inefficient at presenting
same,presentation by splenocytes to DN32.D3 (IL-2 release),[1],efficiently presented
same,IFN-γ secretion,human NKT cell line,significantly less
same,IL-4 secretion,human NKT cell line,almost equivalent amounts
same,DC maturation effect relative to the other lipids,"splenic DCs; 1 μg intravenous, 24 hours",less pronounced effect
same,"DC phenotype (CD40, CD80, CD86, MHC class II expression)","splenic DCs; 1 μg intravenous, 24 hours",mature phenotype
same,lesser potency on DC maturation at increased doses,"splenic DCs; doses up to 50 μg per mouse, data not shown",could not be overcome
same,requirement of processing by DCs for stimulation of NKT cells,DN32.D3 cells,does not require processing by DCs
"CCCCCCCCCCCCC/C=C/[C@@H](O)[C@H](CO[C@@H]1O[C@H](CO)[C@@H](O)[C@H](OS(=O)(=O)O)[C@H]1O)NC(=O)CCCCCCCCCCCCCCCCCCCCCCCCC [PBS-32, sulfoglucosylceramide]",GM-CSF secretion,NKT cells,induced secretion
same,IFN-γ secretion,NKT cells,induced secretion
same,IL-4 secretion,NKT cells,induced secretion
same,IL-10 secretion,NKT cells,not IL-10
same,"anti-LCMV CD4+ T cell response (GP61, NP309)",[2],significant increase
same,"anti-LCMV CD8+ T cell response (GP33, NP396, GP276)",[2],did equally well
same,presentation by DCs isolated from CD1-TD mice,[1],inefficient at presenting
same,presentation by splenocytes to DN32.D3 (IL-2 release),[1],efficiently presented
same,IL-4 in serum,C57BI/6 mice,undetectable
same,timing of IFN-γ production,C57BI/6 mice,earlier IFN-γ production than α-GalCer
same,IFN-γ production in the serum,C57BI/6 mice; at 24 hours,1500 pg/mL
same,IFN-γ production in the serum,C57BI/6 mice; eight hours post-injection,600 pg/mL
same,IFN-γ secretion,human NKT cell line,able to induce
same,IL-4 secretion,human NKT cell line,almost equivalent amounts
same,"DC phenotype (CD40, CD80, CD86, MHC class II expression)","splenic DCs; 1 μg intravenous, 24 hours",mature phenotype
same,tetramer staining intensity,[3],less intense than for CD1d-αGalCer tetramers but homogenous
same,adjuvant activity with purified protein antigen,[4]; in combination with ovalbumin,had adjuvant activity
same,H-2Kb/ova257-264 tetramer positive cells in the CD8+ T cell pool,[4],about 3%
same,IgG anti-ovalbumin response,[4],dramatically boosted
same,relative potency in IL-2 production,DN32.D3 cells,consistently more potent than phytoceramide PBS-31
same,requirement of processing by DCs for stimulation of NKT cells,DN32.D3 cells,does not require processing by DCs
CCCCCCCCCCCCCCCCCCCCCCCCCC(=O)NC(COC1OC(CO)C(O)C(OS(=O)(=O)O)C1O)C(O)C(O)CCCCCCCCCCCCCC (centres unmarked) [PBS-36],loading of CD1d in the absence of saposin B,CD1d,loaded onto CD1d in the absence of saposin B
"CCCCCCCC/C=C\CCCCCCCCCCCCCC(=O)N[C@@H](CO[C@H]1O[C@H](CNC(C)=O)[C@H](O)[C@H](O)[C@H]1O)[C@H](O)[C@H](O)CCCCCCCCCCCCCC [PBS-57, reference compound]",H-2Kb/ova257-264 tetramer positive cells in the CD8+ T cell pool,[4],~6%
same,IgG anti-ovalbumin response,[4],dramatically boosted
CCCCCCCCCCCCC/C=C/[C@@H](O)[C@H](CO[C@H]1O[C@H](CO)[C@@H](O)[C@H](OS(=O)(=O)O)[C@H]1O)NC(=O)CCCCCCCCCCCCCCCCCCCCCCCCC [PBS-58],loading of CD1d in the absence of saposin B,CD1d,marginally loaded in the absence of saposin B
"CCCCCCCCCCCCCCCCCCCCCCCCCC(=O)N[C@@H](CO[C@H]1O[C@H](CO)[C@H](O)[C@H](O)[C@H]1O)[C@H](O)[C@H](O)CCCCCCCCCCCCCC [αGalCer, α-galactosylceramide, reference compound]",Kd,Vα14/2Cβ TCR,30 nM
same,"anti-LCMV CD4+ T cell response (GP61, NP309)",[2],unchanged
same,"anti-LCMV CD8+ T cell response (GP33, NP396, GP276)",[2],significantly increase
same,IFN-γ production in the serum,C57BI/6 mice; at 24 hours,2500 pg/mL
same,"DC phenotype (CD40, CD80, CD86, MHC class II expression)","splenic DCs; 1 μg intravenous, 24 hours",mature phenotype
"isoglobotrihexosylceramide [iGB3, reference compound]",IL-4 secretion,human NKT cell line,almost equivalent amounts
